According to patent US12564193B2, “Isoxazoline-substituted benzamide derivative, and preparation method therefor and use thereof” (SHANDONG UNITED PESTICIDE INDUSTRY CO., LTD., priority 2020, dated 2026):
Read-outs that look alike come from different tables or passages of the source.

How the values were obtained:
Assay type in all cases: in vivo
Mythimna separata = assay: Insecticidal activity, spray on pre-infested radish plants: Mythimna separata; conditions: Mythimna separata, 144 h, read-out: fatality rate on Mythimna separata
Description: (§1) For determination of insecticidal activity, the test method was as follows: a test solution with a desired concentration was prepared by dissolving a test compound sample in a suitable solvent (the kind of solvent was such as acetone, methanol, DMSO, etc., and was selected according to its dissolving ability for the sample). The test cell was composed of a small open container with 12-15 day old radish plants inside. The plants were pre-infested by placing 30-40 pests located on one leaf cut from the cultivated plant on one leaf of the test plant (leaf cutting method). As the leaves dehydrated, the pests moved on the test plants. After the pre-infesting, the soil of the test cells was covered with a layer of sand.
(§2) The test method was as follows: the test was repeated for three times, and after spraying the formulated test compound, each test unit was allowed to dry for 1 hour, and then a black mesh cover was placed at the top. The test units were kept in a growth chamber at 25° C. and 70% relative humidity for 6 days. The mortality (fatality rate) of the insects was then visually assessed for each test unit, and the fatality rate was calculated as follows: […]

Tetranychus cinnabarinus = assay: Acaricidal activity, slide immersion of female adult mites: Tetranychus cinnabarinus; conditions: read-out: fatality rate on Tetranychus cinnabarinus
Description: The test method was as follows: a test solution with a desired concentration was prepared by dissolving a test compound sample in a suitable solvent (the kind of solvent was such as acetone, methanol, DMSO, etc., and was selected according to its dissolving ability for the sample). A double-sided adhesive tape was cut into 2-3 cm long pieces, the pieces were attached to one end of a microscope slide, paper pieces on the adhesive tape were removed using tweezers, female adult mites which were consistent in size, bright in body color and lively in action were selected using a zero-size brush pen, the backs of the female adult mites were adhered to the double-sided adhesive tape (note: the adhesion should not cover mite feet, mite whiskers and mouthparts), with 4 rows of mites adhered to each piece and 10 heads of the mites adhered to each row.
One end of the glass slide with the mites was immersed into a drug liquid, with slightly shaking for 5 seconds, and then the slide was taken out. The excess drug liquid around the mite body and is surroundings is quickly sucked off using absorbent paper. The slide was placed in the biochemical incubator described above, and the results were checked by using binoculars after 24 hours. The mites were slightly touched by using a brush pen, the mites with immobility in feet were considered to be dead, and the fatality rate was calculated. The fatality rate was calculated as follows: […]

Chilo suppressalis = assay: Insecticidal activity, spray on pre-infested radish plants: Chilo suppressalis; conditions: Chilo suppressalis, 144 h, read-out: fatality rate on Chilo suppressalis
Description: as §1, §2

Pieris rapae = assay: Insecticidal activity, spray on pre-infested radish plants: Pieris rapae; conditions: 144 h, read-out: fatality rate on Pieris rapae
Description: as §1, §2

Spodoptera litura = assay: Insecticidal activity, spray on pre-infested radish plants: Spodoptera litura; conditions: 144 h, read-out: fatality rate on Spodoptera litura
Description: as §1, §2

[1] = system: Frankliniella occidentalis; assay: Insecticidal activity, spray on pre-infested radish plants: Frankliniella occidentalis; conditions: Frankliniella occidentalis, 144 h, read-out: fatality rate on Frankliniella occidentalis
Description: as §1
The test method was as follows: the test was repeated for three times, and after spraying the formulated test compound, each test unit was allowed to dry for 1 hour, and then a black mesh cover was placed at the top. The test units were kept in a growth chamber at 25° C. and 70% relative humidity for 6 days. The mortality (fatality rate) of the insects was then visually assessed for each test unit, and the fatality rate was calculated as follows:
[formula] (1) Test Results for the Control of Frankliniella occidentalis by Exemplary Example Compounds

Plutella xylostella = assay: Insecticidal activity, spray on pre-infested radish plants: Plutella xylostella; conditions: Plutella xylostella, 144 h, read-out: fatality rate on Plutella xylostella
Description: as §1, §2

Cnaphalocrocis medinalis = assay: Insecticidal activity, spray on pre-infested radish plants: Cnaphalocrocis medinalis; conditions: 144 h, read-out: fatality rate on Cnaphalocrocis medinalis
Description: as §1, §2

[2] = dose 1 ppm, immersion 5 seconds, checked after 24 hours
[3] = dose 10 ppm, immersion 5 seconds, checked after 24 hours
[4] = dose 25 ppm, immersion 5 seconds, checked after 24 hours

Cc1cc(C2=NOC(c3cc(F)c(F)c(F)c3)(C(F)(F)F)C2)ccc1C(=O)NCc1ncc(Cl)cc1Cl (stereo not drawn) [Compound 12]
> 80%: pest or weed control at 0.1 ppm (Mythimna separata; dose 0.1 ppm, spray, 6 days) | pest or weed control at 1 ppm (Mythimna separata; dose 1 ppm, spray, 6 days) | pest or weed control at 10 ppm (Mythimna separata; dose 10 ppm, spray, 6 days) | pest or weed control at 1 ppm (Tetranychus cinnabarinus; [2]) | pest or weed control at 10 ppm (Tetranychus cinnabarinus; [3]) | pest or weed control at 25 ppm (Tetranychus cinnabarinus; [4]) | pest or weed control at 0.1 ppm (Chilo suppressalis; dose 0.1 ppm, spray, 6 days) | pest or weed control at 1 ppm (Chilo suppressalis; dose 1 ppm, spray, 6 days) | pest or weed control at 10 ppm (Chilo suppressalis; dose 10 ppm, spray, 6 days) | pest or weed control at 0.1 ppm (Pieris rapae; dose 0.1 ppm, spray, 6 days) | pest or weed control at 1 ppm (Pieris rapae; dose 1 ppm, spray, 6 days) | pest or weed control at 10 ppm (Pieris rapae; dose 10 ppm, spray, 6 days) | pest or weed control at 0.1 ppm (Spodoptera litura; dose 0.1 ppm, spray, 6 days) | pest or weed control at 1 ppm (Spodoptera litura; dose 1 ppm, spray, 6 days) | pest or weed control at 10 ppm (Spodoptera litura; dose 10 ppm, spray, 6 days) | pest or weed control at 1 ppm ([1]; dose 1 ppm, spray, 6 days) | pest or weed control at 10 ppm ([1]; dose 10 ppm, spray, 6 days) | pest or weed control at 25 ppm ([1]; dose 25 ppm, spray, 6 days) | pest or weed control at 0.1 ppm (Plutella xylostella; dose 0.1 ppm, spray, 6 days) | pest or weed control at 1 ppm (Plutella xylostella; dose 1 ppm, spray, 6 days) | pest or weed control at 10 ppm (Plutella xylostella; dose 10 ppm, spray, 6 days) | pest or weed control at 0.1 ppm (Cnaphalocrocis medinalis; dose 0.1 ppm, spray, 6 days) | pest or weed control at 1 ppm (Cnaphalocrocis medinalis; dose 1 ppm, spray, 6 days) | pest or weed control at 10 ppm (Cnaphalocrocis medinalis; dose 10 ppm, spray, 6 days)

Cc1cc(C2=NOC(c3cc(Cl)c(F)c(Cl)c3)(C(F)(F)F)C2)ccc1C(=O)NCc1ncccc1Cl (stereo not drawn) [Compound 13]
> 80%: pest or weed control at 0.1 ppm (Mythimna separata) | pest or weed control at 1 ppm (Mythimna separata) | pest or weed control at 10 ppm (Mythimna separata) | pest or weed control at 1 ppm (Tetranychus cinnabarinus; 24 h) | pest or weed control at 10 ppm (Tetranychus cinnabarinus; 24 h) | pest or weed control at 25 ppm (Tetranychus cinnabarinus; 24 h) | pest or weed control at 0.1 ppm (Chilo suppressalis) | pest or weed control at 1 ppm (Chilo suppressalis) | pest or weed control at 10 ppm (Chilo suppressalis) | pest or weed control at 0.1 ppm (Pieris rapae) | pest or weed control at 1 ppm (Pieris rapae) | pest or weed control at 10 ppm (Pieris rapae) | pest or weed control at 0.1 ppm (Spodoptera litura) | pest or weed control at 1 ppm (Spodoptera litura) | pest or weed control at 10 ppm (Spodoptera litura) | pest or weed control at 1 ppm [1] | pest or weed control at 10 ppm [1] | pest or weed control at 25 ppm [1] | pest or weed control at 0.1 ppm (Plutella xylostella) | pest or weed control at 1 ppm (Plutella xylostella) | pest or weed control at 10 ppm (Plutella xylostella) | pest or weed control at 0.1 ppm (Cnaphalocrocis medinalis) | pest or weed control at 1 ppm (Cnaphalocrocis medinalis) | pest or weed control at 10 ppm (Cnaphalocrocis medinalis)

Cc1cc(C2=NOC(c3cc(F)c(F)c(F)c3)(C(F)(F)F)C2)ccc1C(=O)NCc1ncccc1Cl (stereo not drawn) [Compound 14]
> 80%: pest or weed control at 0.1 ppm (Mythimna separata; dose 0.1 ppm, spray, 6 days) | pest or weed control at 1 ppm (Mythimna separata; dose 1 ppm, spray, 6 days) | pest or weed control at 10 ppm (Mythimna separata; dose 10 ppm, spray, 6 days) | pest or weed control at 1 ppm (Tetranychus cinnabarinus; [2]) | pest or weed control at 10 ppm (Tetranychus cinnabarinus; [3]) | pest or weed control at 25 ppm (Tetranychus cinnabarinus; [4]) | pest or weed control at 0.1 ppm (Chilo suppressalis; dose 0.1 ppm, spray, 6 days) | pest or weed control at 1 ppm (Chilo suppressalis; dose 1 ppm, spray, 6 days) | pest or weed control at 10 ppm (Chilo suppressalis; dose 10 ppm, spray, 6 days) | pest or weed control at 0.1 ppm (Pieris rapae; dose 0.1 ppm, spray, 6 days) | pest or weed control at 1 ppm (Pieris rapae; dose 1 ppm, spray, 6 days) | pest or weed control at 10 ppm (Pieris rapae; dose 10 ppm, spray, 6 days) | pest or weed control at 0.1 ppm (Spodoptera litura; dose 0.1 ppm, spray, 6 days) | pest or weed control at 1 ppm (Spodoptera litura; dose 1 ppm, spray, 6 days) | pest or weed control at 10 ppm (Spodoptera litura; dose 10 ppm, spray, 6 days) | pest or weed control at 1 ppm ([1]; dose 1 ppm, spray, 6 days) | pest or weed control at 10 ppm ([1]; dose 10 ppm, spray, 6 days) | pest or weed control at 25 ppm ([1]; dose 25 ppm, spray, 6 days) | pest or weed control at 0.1 ppm (Plutella xylostella; dose 0.1 ppm, spray, 6 days) | pest or weed control at 1 ppm (Plutella xylostella; dose 1 ppm, spray, 6 days) | pest or weed control at 10 ppm (Plutella xylostella; dose 10 ppm, spray, 6 days) | pest or weed control at 0.1 ppm (Cnaphalocrocis medinalis; dose 0.1 ppm, spray, 6 days) | pest or weed control at 1 ppm (Cnaphalocrocis medinalis; dose 1 ppm, spray, 6 days) | pest or weed control at 10 ppm (Cnaphalocrocis medinalis; dose 10 ppm, spray, 6 days)
